By melting point is commonly meant the temperature of the solid-liquid transition.

Counter-ions that a name gives are not always drawn.

`CNCCC(c1ccc2cc[nH]c2c1)c1ccccn1` (stereo not shown) (as salt: HCl) (hydrate or solvate) [compound 21] came in with a melting point of over 300 °C.

As to `CNCCC(c1cccc(Cl)c1)c1ccc2cc[nH]c2c1` (stereo not shown) (as salt: HCl) [compound 36, [3-(3-Chloro-phenyl)-3-(1H-indol-6-yl)-propyl]-methyl-amine], the melting point lay in the range of 62 to 63 °C.

In turn, `CNCCC(c1ccccc1)c1cccc2[nH]ncc12` (stereo not shown) (as salt: HCl) [compound 49, [3-(1H-Indazol-4-yl)-3-phenyl-propyl]-methyl-amine] gave a melting point of 130.6 to 133.1 °C.

As for `CNCC[C@H](c1ccccc1)c1cccc2cn[nH]c12` (as salt: TFA) [compound 55, [(R)-3-(1H-Indazol-7-yl)-3-phenyl-propyl]-methyl-amine], the melting point was in the range of 61.9 to 65.7 °C.

`CNCC[C@@H](c1ccccc1)c1cccc2cn[nH]c12` (as salt: TFA) [compound 56, [(S)-3-(1H-Indazol-7-yl)-3-phenyl-propyl]-methyl-amine] came in with a melting point of 62 to 68.1 °C.

In turn, `CNCCC(c1ccccc1)c1ccc2[nH]nc(C)c2c1` (stereo not shown) (as salt: TFA) [compound 58, Methyl-[3-(3-methyl-1H-indazol-5-yl)-3-phenyl-propyl]-amine] displayed a melting point of 64.5 to 66 °C.

With `CNCCC(c1ccc2[nH]ccc2c1)c1ccc2[nH]ccc2c1` [compound 111, [3,3-Bis-(1H-indol-5-yl)-propyl]-methyl-amine], the melting point lay within 142 to 152 °C.

Regarding `NCCC(c1ccc2ncccc2c1)c1ccc2[nH]ccc2c1` (stereo not shown) [compound 120, 3-(1H-Indol-5-yl)-3-quinolin-6-yl-propylamine], the melting point lay in the range of 60.9 to 62.9 °C.

For `CNCCC(c1ccc2[nH]ccc2c1)c1ccc2nccnc2c1` (stereo not shown) [compound 123, [3-(1H-lndol-5-yl)-3-quinoxalin-6-yl-propyl]-methyl-amine], the melting point was in the range of 60.3 to 62 °C.

The molecule `CNCCC(c1cnc2ccccc2c1)c1ccc2[nH]ccc2c1` (stereo not shown) [compound 137, [3-(1H-Indol-5-yl)-3-quinolin-3-yl-propyl]-methyl-amine] registered a melting point of 56 to 58 °C.

(Values after patent US7803830B2, “3-amino-1-arylpropyl indoles and AZA-substituted indoles and uses thereof” (Roche Palo Alto LLC, priority 2005, dated 2010).)
